One experiment concerns guinea pig atrial muscle. Briefly: In vitro guinea pig atrial muscle contractile force measurement (Test Method I). Format: cell-based. The settings on record: Cavia porcellus; calculated concentration required to increase the contractile force by 50% from the control level; isolated left atria, 30° C., mean of at least three tissues. The source says:
Kaplan, "Strategy for the Discovery and Development of a Positive Inotropic Agent", Pharmacology and Therapeutics, Vol. 16 (1982), pp. 303-330. This test measures the effects of such compounds on the contractility of cardiac tissue excised from the atrial muscle of a guinea pig. In vitro guinea pig atrial muscle contractile force measurement Unfasted male Hartley albino guinea pigs, weighing 450-650 g (Charles River Breeding Laboratories, Inc., Wilmington, MA) were used in these studies. They were killed by cranial concussion at the beginning of the experiment. The heart was quickly removed into a Petri dish filled with a solution of the following composition (in water): NaCl 99.0 mM; Dextrose 11.0 mM; […]; MgSO4 1.2 mM; NaH2 PO4 1.3 mM; CaCl2.2H2 O 2.5 mM; NaHCO3 25.01 mM; bubbled with 95% 02 :5% CO2 at room temperature. A triple O silk ligature was tied to the edge of the left atrial appendage, using an intestinal needle. The appendage was cut off; a section was cut away from the wall which faced the heart, retaining a sheet of tissue from the outer face of the atrium. The tissue was mounted from a pair of point stimulating electrode hooks with 1 gram of tension in an organ bath maintained at 30° C. The ligature was tied to a Grass FT-103 force-displacement transducer, and responses were measured in grams of developed tension with a Grass Model 7 polygraph (Grass Instrument Co., Quincy, MA). The left atria were stimulated electrically with the following square wave parameters: 3 v; 4 msec 1 Hz, as soon as they were put into the baths. After a short time (3-5 minutes), voltage was increased until stable responses were obtained (10-25% above threshold). The tissues were allowed to equilibrate under such stimulation for at least 1 hour before experimentation. The test compounds were dissolved in water, if water soluble, or if not, in tetrahydrofurfuryl alcohol (Eastman D5C) or in an organic vehicle containing 90% polyethylene glycol, 6% ethanol, 3% propylene glycol and 1% H2 O). (Test compound solution concentrations were selected to keep injection volumes between 1 and 10 μl). Isoproterenol (0.54 to 5.4 nM) was given at the beginning of each experiment to confirm the viability and responsiveness of the tissues. Test agents were given in several graded doses in logarithmic increments. Responsiveness to isoproterenol was also assessed at the end of the experiment unless other positive drug responses were obtained near the end of the experiment. Results were expressed as percent change from control for contractile force. The EC50 value (calculated concentration required to increase the contractile force by 50% from the control level) for each tissue was obtained, where possible, by regression analysis. The mean of the EC50 values was obtained from at least three individual tissues for each compound tested. Compounds having the following chemical structure were tested for cardiotonic activity according to one or both of the above test methods: [drawing 3] Determinations of contractile force EC50 according to Test Method I and ventricular pressure ED50 according to Test Method II which have been obtained for the compounds are provided in Table I: […]

Experiment [1] has as its system right ventricle of guinea pig. Kind of experiment: In vivo guinea pig ventricular pressure measurement (Test Method II). The note with it: Cavia porcellus, iv; calculated dose required to increase the right ventricular pressure by 50% from the control level, anesthetized guinea pig. The procedure: An additional or alternative method for testing the cardiotonic activity of compounds of the present invention is set forth in the following reference: Beek, O. G., "A Small Animal Model for Monitoring Inotropic Responses to Cardiotonic Agents", Journal of Pharmacological Methods, Vol. 7 (1982), pp. 321-329. Right ventricular inotropic responses are measured in an anesthetized, close-chested guinea pig using a pressure-sensitive transducer inserted into the right ventricle of the heart via the right jugular vein.
In vivo guinea pig ventricular pressure measurement
Unfasted male Hartley albino guinea pigs, weighing 450-650 g (Charles River Breeding Laboratories, Inc., Wilmington, MA) were used in these studies. Under ethyl carbamate (urethane) anesthesia (1.25 g/kg i.p.), the trachea was cannulated through a mid-ventral cervical incision. The left carotid artery was cannulated with PE-50 tubing (Clay Adams Co., Parsippany, NJ) filled with 100 µg/ml heparin for blood pressure monitoring, and the left jugular vein was cannulated (catheter filled with saline) for drug administration. A 3Fr Millar Mikro-Tip ventricular pressure catheter (Millar instruments, Inc., Houston, Texas) was positioned in the right ventricle via the right jugular vein. A thoracotomy was performed and the guinea pig was respired by a rodent respirator (Model 680, Harvard Apparatus Co., Millis, MA) at a rate of 8 ml/stroke×40 strokes/minute. A modified Brodie strain gauge (Warren Research Products, Charleston, South Carolina) was sutured on the right ventricle parallel to, but avoiding, the intraventricular septum. The rectal body temperature of 37° C. was maintained by an electronic temperature controlled lamp. The animals were left undisturbed for 60 minutes before being used for an experiment.
A single i.v. bolus does of 0.3 μg/kg isoproterenol was administered followed by a 0.2 ml saline flush prior to and at the end of each experiment to check the viability and responsiveness of each animal. Usually a vehicle does in a volume equal to the single largest volume of compound to be administered was intravenously injected 20-30 minutes after the initial isoproterenol injection when parameters had returned to baseline levels. A non-cumulative dose response curve was determined for each compound using a minimum of 3 doses. Time between doses for all compounds was dependent upon the time needed for all parameters to return to baseline or stable levels. A minimum of 3 animals per dose level was tested for each compound.
Results were expressed as percent changes from pretreatment baseline for all parameters measured. The ED50 values of ventricular pressure changes (calculated dose required to increase the right ventricular pressure by 50% from the control level) of test compounds were determined by regression analysis.
Compounds having the following chemical structure were tested for cardiotonic activity according to one or both of the above test methods: [drawing 3] Determinations of contractile force EC50 according to Test Method I and ventricular pressure ED50 according to Test Method II which have been obtained for the compounds are provided in Table I: […]

Structures can show the parent of a compound that is named as a salt.

Consider `Brc1cccc(Br)c1-c1ccc(-c2ncc[nH]2)o1` [Example 24], for which, in the experiment with guinea pig atrial muscle, the EC50 (in general, the midpoint of the concentration-response curve) is > 100 µM.
The same measure, in the same setting: to `FC(F)(F)c1ccccc1-c1ccc(-c2ncc[nH]2)o1` [Example 11] belongs 28.2 µM.
In the case of `Cc1ccc(-c2ccc(-c3ncc[nH]3)o2)c(Br)c1` [Example 25], in the experiment with guinea pig atrial muscle, the half-maximal effective concentration (EC50) is 1.5 µM.
Take `FC(F)(F)c1ccc(-c2ccc(-c3ncc[nH]3)o2)cc1` [Example 16]: the EC50 in the experiment on guinea pig atrial muscle was 3 µM.
Regarding `Brc1ccccc1-c1ccc(-c2ncc[nH]2)o1` [Example 8, 2-[5-(2-Bromophenyl)-2-furanyl]imidazole Hydrochloride Tetartohydrate], the EC50 in the experiment on guinea pig atrial muscle is 5.7 µM. Also, the 50% effective dose (ED50) (commonly the midpoint of the dose-response relation) in experiment [1] was 0.8 mg/kg.
Take `FC(F)(F)c1cc(-c2ccc(-c3ncc[nH]3)o2)ccc1Br` [Example 26]: the concentration giving a half-maximal response (EC50) with guinea pig atrial muscle was 4 µM.
For `FC(F)(F)c1cccc(-c2ccc(-c3ncc[nH]3)o2)c1` [Example 3], the EC50 with guinea pig atrial muscle was 6.5 µM.
Take `c1ccc(-c2ccc(-c3ncc[nH]3)o2)cc1` [Example 6]: in the experiment on guinea pig atrial muscle, the EC50 is 22.9 µM. Further, the ED50 in experiment [1] was 1.98 mg/kg.
On to `Brc1ccc(-c2ccc(-c3ncc[nH]3)o2)cc1` [Example 14], for which, in the experiment on guinea pig atrial muscle, the EC50 is 1.3 µM.
`CC(C)c1ccc(-c2ccc(-c3ncc[nH]3)o2)cc1` [Example 20, 2-[5-[4-(1-Methylethyl)phenyl]-2-furanyl]-1H-imidazole Hydrochloride]: the EC50 in the experiment on guinea pig atrial muscle was 6.8 µM.
`CCn1ccnc1-c1ccc(-c2ccccc2Br)o1` [Example 30, 2-[5-(2-Bromophenyl)-2-furanyl]-1-ethyl-1H-imidazole Hydrochloride]: in the experiment with guinea pig atrial muscle, the EC50 was 21.2 µM.
As to `Brc1ccc(-c2ccc(-c3ncc[nH]3)o2)c(Br)c1` [Example 21], the EC50 in the experiment on guinea pig atrial muscle was 8 µM.
The same measure, in the same setting: the figure for `COc1ccc(-c2ccc(-c3ncc[nH]3)o2)cc1` [Example 28] is 28 µM; for `Cc1c[nH]c(-c2ccc(-c3ccc(Br)cc3)o2)n1` [Example 23, 2-[5-(4-Bromophenyl)-2-furanyl]-4-methyl-1H-imidazole Hydrochloride] it is 0.5 µM.
Regarding `Cn1ccnc1-c1ccc(-c2ccccc2Br)o1` [Example 18], the concentration for a half-maximal effect (EC50) in the experiment with guinea pig atrial muscle is 21.1 µM.
`COc1cc(-c2ccc(-c3ncc[nH]3)o2)ccc1Br` [Example 29, 2-[5-(4-Bromo-3-methoxyphenyl)-2-furanyl]-1H-imidazole Hydrochloride]: in the experiment on guinea pig atrial muscle, the EC50 is 3.4 µM.
Regarding `Cc1ccc(-c2ccc(-c3ncc[nH]3)o2)cc1` [Example 19, 2-[5-(4-methylphenyl)-2-furanyl]-1H-imidazole hydrochloride], the EC50 with guinea pig atrial muscle was 3.7 µM.
Regarding `Cc1cn(C)c(-c2ccc(-c3ccc(Br)cc3)o2)n1` [Example 34, 2-[5-(4-Bromophenyl)-2-furanyl]-1,4-dimethyl-1H-imidazole Hydrochloride Hydrate], in the experiment on guinea pig atrial muscle, the EC50 is > 100 µM.
The same measure, in the same setting: to `CC(=O)c1ccc(-c2ccc(-c3ncc[nH]3)o2)cc1` [Example 7] belongs 40 µM.
As for `Cc1cc(Br)ccc1-c1ccc(-c2ncc[nH]2)o1` [Example 31, 2-[5-(4-Bromo-2-methylphenyl)-2-furanyl]-1H-imidazole Hydrochloride], the EC50 in the experiment with guinea pig atrial muscle is 1.9 µM.
Still for that read-out and setting: the figure for `Cc1cnc(-c2ccc(-c3ccc(Br)cc3)o2)n1C` [Example 33, 2-[5-(4-Bromophenyl)-2-furanyl]-1,5-dimethyl-1H-imidazole Hydrochloride] is 50.2 µM; for `O=[N+]([O-])c1ccc(-c2ccc(-c3ncc[nH]3)o2)cc1` [Example 1] it is 260 µM; for `Ic1ccc(-c2ccc(-c3ncc[nH]3)o2)cc1` [Example 27] it is 10.3 µM.
Consider `Fc1ccc(-c2ccc(-c3ncc[nH]3)o2)cc1` [Example 15], for which the EC50 in the experiment with guinea pig atrial muscle was 33.4 µM.
For the compound `COc1ccc(-c2ccc(-c3ncc[nH]3)o2)cc1OC` [Example 4], in the experiment on guinea pig atrial muscle, the EC50 is 190 µM. The ED50 in experiment [1] is 3.16 mg/kg.
On to `Clc1ccccc1-c1ccc(-c2ncc[nH]2)o1` [Example 9], for which the EC50 in the experiment with guinea pig atrial muscle was 3.7 µM.
As for `Clc1ccc(-c2ccc(-c3ncc[nH]3)o2)cc1` [Example 2], the EC50 in the experiment with guinea pig atrial muscle is 3.5 µM. In addition, the ED50 in experiment [1] is 0.31 mg/kg.
For `Cc1c[nH]c(-c2ccc(-c3ccccc3Br)o2)n1` [Example 32, 2-[5-(2-Bromophenyl)-2-furanyl]-4-methyl-1H-imidazole Hydrochloride], the EC50 in the experiment with guinea pig atrial muscle was 1.7 µM.
As for `Clc1ccc(-c2ccc(-c3ncc[nH]3)o2)c(Cl)c1` [Example 12], the EC50 in the experiment with guinea pig atrial muscle is 1.3 µM. Moreover, in experiment [1], the ED50 was 2.05 mg/kg.
Regarding `Fc1ccccc1-c1ccc(-c2ncc[nH]2)o1` [Example 10], the concentration giving a half-maximal response (EC50) in the experiment on guinea pig atrial muscle is 7.2 µM.
As to `O=[N+]([O-])c1ccccc1-c1ccc(-c2ncc[nH]2)o1` [Example 5], in the experiment on guinea pig atrial muscle, the concentration giving a half-maximal response (EC50) was 60 µM. The ED50 in experiment [1] is 29.1 mg/kg.
In the case of `Cn1ccnc1-c1ccc(-c2ccc(Br)cc2)o1` [Example 22], the EC50 with guinea pig atrial muscle is > 100 µM.
For the compound `COc1ccc(-c2ccc(-c3ncc[nH]3)o2)c([N+](=O)[O-])c1` [Example 17], the EC50 in the experiment on guinea pig atrial muscle was 8.2 µM.
Take `Clc1ccc(-c2ccc(-c3ncc[nH]3)o2)cc1Cl` [Example 13]: in the experiment with guinea pig atrial muscle, the half-maximal effective concentration (EC50) was 5.4 µM.
